# Literature values in US11206824B2, “Gas delivery device comprising a gas releasing molecule and a gas permeable membrane” (Julius-Maximilians-Universitaet Wuerzburg, priority 2015, dated 2021).
# What was measured:
# [1] = test system: liver transplantation associated I/R injury; details: pre-treatment of donors, inhaled
# [2] = test system: renal warm ischemia reperfusion injury; details: i.v. 20 mg/kgBW, mice
# [3] = test system: rodent liver; details: 50 μM in modified UW solution, 48 h cold ischemia
# [4] = test system: rodent kidney grafts; details: 1 ml, 100 μmol/L in UW solution, 26 h cold preservation
compound,measurement,setting,value
"[C-]#[O+] [CO, carbon monoxide]",liver transplantation associated I/R injury,[1],ameliorates
"[C-]#[O+].[C-]#[O+].[C-]#[O+].[C-]#[O+].[C-]#[O+].[C-]#[O+].[Cl][Ru][Cl].[Cl][Ru][Cl] [CORM-2, tricarbonyldichlororuthenium(II) dimer]",protection against lethal renal warm ischemia reperfusion injury,[2],almost completely protects
"NCC(=O)O.[C-]#[O+].[C-]#[O+].[C-]#[O+].[Cl][Ru] [CORM-3, tricarbonylchloro ruthenium-glycinato]","perfusion flow, intrahepatic resistance and metabolic capacity",[3],improved
same,cellular and graft injury and survival,[4],"significant impact on decreasing cellular and graft injury, and improving survival"
